Some test systems named below: MCF7 breast; PC-3 prostate; OVCAR-8 ovarian; SK-OV-3 ovarian; SR leukemia; MDA-MB-231 breast; NCI-H460 lung; BT-549 breast; OVCAR-5 ovarian; T-47D breast; RXF 393 renal; LOX IMVI melanoma.
What all share (assay): DTP human tumour cell line panel, 48 h

Each structure is given as a SMILES string.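 Cultured in 96-well plates, cells were exposed to test compound for 48 hours across five concentrations. TGI is the concentration that stops growth completely.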

Consider `COc1cc(C(=O)OC2CC34CCNC35CC(OC5(OC)C2O)c2cc3c(cc24)OCO3)ccc1O` (stereo unspecified), for which the TGI with MCF7 breast, with PC-3 prostate, with OVCAR-8 ovarian, in the experiment with SK-OV-3 ovarian, in the experiment on SR leukemia and with MDA-MB-231 breast was above 100 µM throughout. The total growth inhibition concentration (TGI) with NCI-H460 lung, in the experiment with BT-549 breast, in the experiment on OVCAR-5 ovarian, in the experiment on T-47D breast, in the experiment with RXF 393 renal and in the experiment with LOX IMVI melanoma was above 100 µM in each case.

`COC(=O)C1=COC2OC3CC1C2C(C)O3` (stereo unspecified): the TGI in the experiment with MCF7 breast, in the experiment on PC-3 prostate, with OVCAR-8 ovarian, in the experiment on SK-OV-3 ovarian, in the experiment with SR leukemia and in the experiment with MDA-MB-231 breast was above 100 µM in each case. Moreover, the TGI in the experiment with NCI-H460 lung, in the experiment on BT-549 breast, in the experiment with OVCAR-5 ovarian, in the experiment on T-47D breast, with RXF 393 renal and in the experiment with LOX IMVI melanoma was above 100 µM each time.

In the case of `CCOC(=O)CCc1ccc(NC(=O)/C=C/c2ccc([N+](=O)[O-])o2)cc1`, the TGI is 32.4 µM in the experiment on MCF7 breast; above 29.9 µM with PC-3 prostate; 2.28 µM in the experiment on OVCAR-8 ovarian; above 100 µM in the experiment with SK-OV-3 ovarian; 0.475 µM in the experiment with SR leukemia; 3.94 µM in the experiment with MDA-MB-231 breast. Also, the total growth inhibition concentration (TGI) was 4.78 µM in the experiment on NCI-H460 lung; 4.79 µM in the experiment with BT-549 breast; 6.4 µM in the experiment with OVCAR-5 ovarian; 40.8 µM with T-47D breast; 2.75 µM in the experiment with RXF 393 renal; 1.54 µM in the experiment on LOX IMVI melanoma.

Consider `CCOC(=O)c1csc(-c2cn(C)c3c2C(=O)C(OC)=CC3=O)n1`, for which the concentration for total growth inhibition (TGI) in the experiment with MCF7 breast is 69.8 µM; in the experiment with PC-3 prostate it was above 100 µM; in the experiment with OVCAR-8 ovarian it was above 100 µM; in the experiment on SK-OV-3 ovarian it was above 100 µM; in the experiment on SR leukemia, above 100 µM; with MDA-MB-231 breast it was 57.8 µM. Further, the TGI in the experiment on NCI-H460 lung is above 41.6 µM; in the experiment on BT-549 breast it was above 100 µM; with OVCAR-5 ovarian, above 100 µM; with T-47D breast it was above 100 µM; in the experiment with RXF 393 renal it was 71.8 µM; in the experiment with LOX IMVI melanoma it was above 100 µM.

In the case of `C1=Cc2cccc3occ(c23)C=C1`, the TGI is above 100 µM in the experiment on MCF7 breast; above 100 µM in the experiment on PC-3 prostate; above 100 µM with OVCAR-8 ovarian; above 100 µM in the experiment on SK-OV-3 ovarian; 43 µM with SR leukemia; above 100 µM in the experiment with MDA-MB-231 breast. Besides, the TGI with NCI-H460 lung is above 100 µM; in the experiment with BT-549 breast, above 100 µM; in the experiment on OVCAR-5 ovarian, above 100 µM; in the experiment with T-47D breast, above 100 µM; with RXF 393 renal, 88.3 µM; with LOX IMVI melanoma, 33.8 µM.

As for `COC(=O)/C(C#N)=C/c1cc(C(C)(C)C)c(O)c(C(C)(C)C)c1`, the TGI in the experiment with MCF7 breast is 15.7 µM; in the experiment with PC-3 prostate, 6.78 µM; with OVCAR-8 ovarian it was 33.6 µM; in the experiment on SK-OV-3 ovarian it was 8.04 µM; in the experiment on SR leukemia it was 11 µM; in the experiment with MDA-MB-231 breast, 4.95 µM. For the same compound, the TGI came to 5.75 µM with NCI-H460 lung; 14 µM in the experiment with BT-549 breast; 8.51 µM in the experiment with OVCAR-5 ovarian; 19.4 µM in the experiment on T-47D breast; 14.8 µM with RXF 393 renal; 17 µM in the experiment with LOX IMVI melanoma.

For `O=C1c2ccccc2C(=O)c2sc(Nc3ccc([N+](=O)[O-])cc3)nc21`, the TGI with MCF7 breast was determined as 31 µM; in the experiment on PC-3 prostate, 19.9 µM; in the experiment with OVCAR-8 ovarian, 13.7 µM; with SK-OV-3 ovarian, 36.8 µM; with SR leukemia, 7.97 µM; in the experiment on MDA-MB-231 breast, 6.39 µM. Moreover, the total growth inhibition concentration (TGI) in the experiment on NCI-H460 lung was 34.4 µM; in the experiment on BT-549 breast, 27.4 µM; in the experiment with OVCAR-5 ovarian it was 29.8 µM; in the experiment on T-47D breast, 6.81 µM; with RXF 393 renal, 9.71 µM; with LOX IMVI melanoma it was 4.66 µM.

Consider `COc1cc(OC)nc(-n2c(N)c(C(=O)O)c3ccc([N+](=O)[O-])cc3c2=O)n1`, for which the concentration for total growth inhibition (TGI) in the experiment on MCF7 breast, in the experiment on PC-3 prostate, in the experiment on OVCAR-8 ovarian, in the experiment on SK-OV-3 ovarian, with SR leukemia and in the experiment on MDA-MB-231 breast was above 100 µM throughout. In addition, the concentration for total growth inhibition (TGI) with NCI-H460 lung, with BT-549 breast, with OVCAR-5 ovarian, in the experiment on T-47D breast, in the experiment with RXF 393 renal and with LOX IMVI melanoma was above 100 µM each time.

In the case of `COC1C(=O)N(SC)C1c1ccccc1Cl` (stereo unspecified), the concentration for total growth inhibition (TGI) was 43 µM in the experiment with MCF7 breast; above 100 µM in the experiment on PC-3 prostate; 39.4 µM in the experiment on OVCAR-8 ovarian; above 100 µM in the experiment on SK-OV-3 ovarian; 42.4 µM in the experiment on SR leukemia; 87.3 µM in the experiment with MDA-MB-231 breast. The TGI was above 100 µM with NCI-H460 lung; 54.2 µM in the experiment on BT-549 breast; 32.2 µM in the experiment on OVCAR-5 ovarian; 58.5 µM with T-47D breast; above 100 µM in the experiment with RXF 393 renal; above 100 µM with LOX IMVI melanoma.

For `Cc1nn(C(=O)c2ccc(Cl)cc2)c2c1C(c1ccc(Cl)cc1)SC(N)=N2` (stereo unspecified), the concentration for total growth inhibition (TGI) in the experiment with MCF7 breast, in the experiment on PC-3 prostate, with OVCAR-8 ovarian, in the experiment on SK-OV-3 ovarian, in the experiment with SR leukemia and with MDA-MB-231 breast was above 10 µM each time. For the same compound, the concentration for total growth inhibition (TGI) with NCI-H460 lung, in the experiment with BT-549 breast, in the experiment with OVCAR-5 ovarian, in the experiment with T-47D breast, with RXF 393 renal and in the experiment on LOX IMVI melanoma was above 10 µM in each case.

Take `NC(=O)NC(=O)c1cccc(NC(=O)CCl)c1`: the TGI with MCF7 breast came out at 9.32 µM; in the experiment on PC-3 prostate it was 11.6 µM; in the experiment with OVCAR-8 ovarian it was 12.7 µM; in the experiment with SK-OV-3 ovarian, 8.88 µM; with SR leukemia, 3.92 µM; in the experiment on MDA-MB-231 breast it was 8.38 µM. In addition, the total growth inhibition concentration (TGI) in the experiment on NCI-H460 lung stood at 3.92 µM; in the experiment on BT-549 breast, 9.03 µM; in the experiment with OVCAR-5 ovarian it was 9.49 µM; in the experiment on T-47D breast, 27.7 µM; with RXF 393 renal, 4.3 µM; in the experiment on LOX IMVI melanoma it was 2.17 µM.

With `Oc1cccc2ccc(Br)nc12`, the concentration for total growth inhibition (TGI) in the experiment on MCF7 breast, in the experiment on PC-3 prostate, in the experiment with OVCAR-8 ovarian, with SK-OV-3 ovarian, in the experiment on SR leukemia and with MDA-MB-231 breast was above 100 µM each time. In addition, the TGI in the experiment with NCI-H460 lung, in the experiment on BT-549 breast, in the experiment on OVCAR-5 ovarian, in the experiment on T-47D breast, in the experiment on RXF 393 renal and with LOX IMVI melanoma was above 100 µM each time.

On to `C[C@]12CC[C@H](O)CC1=CC[C@@H]1[C@@H]2CC[C@]2(C)NC(=O)/C(=C\c3ccccc3)C[C@@H]12`, for which the concentration for total growth inhibition (TGI) in the experiment on MCF7 breast is 47.3 µM; in the experiment on PC-3 prostate it was 29.5 µM; in the experiment on OVCAR-8 ovarian, 47.6 µM; in the experiment with SK-OV-3 ovarian, 35.5 µM; with SR leukemia, above 100 µM; in the experiment with MDA-MB-231 breast, 38.9 µM. Further, the TGI with NCI-H460 lung is 68.9 µM; with BT-549 breast, 32.7 µM; in the experiment on OVCAR-5 ovarian, 27.9 µM; in the experiment on T-47D breast, 47 µM; in the experiment on RXF 393 renal, 27.9 µM; in the experiment on LOX IMVI melanoma, 42.5 µM.

One may read the TGI as the concentration at which net growth stops. A lower TGI goes with greater sensitivity of the cells.

Source of the values: PubChem BioAssay (NCI).
